{"source": "patent US6391325B1", "about": "“Use of nitrogen-containing complexing agents for deodorization and antimicrobial treatment of the skin and textile fibre materials” (Ciba Specialty Chemicals Corporation, priority 1996, dated 2002)", "key": {"[1]": {"system": "Corynebacterium xerosis ATCC 7711", "test": "Agar diffusion test (caso-agar, stamped-out holes)", "assay_type": "cell-based", "conditions": "10000 ppm, 100 μl per hole in double-distilled water, 37° C. for 2 days; two values per cell", "method": "(§1) Test method: An agar diffusion test is carried out with the following modifications: Medium: casein-soya flour peptone agar (caso-agar) Test organisms: Corynebacterium xerosis ATCC 373 Corynebacterium xerosis ATCC 7711 Corynebacterium minutissimum ATCC 23358 Procedure: 500 ml of caso-agar are innoculated with 3.5 ml of an overnight culture of the bacteria, diluted 1:100, and caso plates (18 ml) are covered with a layer of about 5 ml of the bacteria-containing agar. […] Each stamped-out hole is filled with in each case 100 μl of a test substance dilution and the plates are incubated at 37° C. for 2 days. Double-distilled water is employed as the solvent for all the substances. In the case of […], the pH is adjusted to 3.3 by addition of 1 N NaOH. Chemically prepared S,S-EDDS is adjusted to the pH of 5.6 by addition of 1 N NaOH. Controls: Double-distilled water"}, "[2]": {"system": "Corynebacterium xerosis ATCC 373", "test": "Agar diffusion test (caso-agar, stamped-out holes)", "assay_type": "cell-based", "conditions": "for Inhibitory aureola diameter Cory. xerosis ATTC 373: 10000 ppm, 100 μl per hole in double-distilled water, 37° C. for 2 days, two values per cell", "method": "as §1"}}}
{"smiles": "O=C(O)C[C@H](NCCN[C@@H](CC(=O)O)C(=O)O)C(=O)O", "note": "[S,S-EDDS (prepared by fermentation), (S,S)-N,N′-ethylenediaminedisuccinic acid]", "values": [{"measurement": "Inhibitory aureola diameter Cory. xerosis ATTC 7711", "setting": "[1]", "value": "15/15^1"}, {"measurement": "Inhibitory aureola diameter Cory. xerosis ATTC 373", "setting": "[2]", "value": "10/10^1"}]}
{"smiles": "O=C(O)CN(CCN(CC(=O)O)CC(=O)O)CC(=O)O", "note": "[EDTA, ethylenediaminetetraacetic acid, reference compound]", "values": [{"measurement": "Inhibitory aureola diameter Cory. xerosis ATTC 7711", "setting": "[1]", "value": "2/2"}, {"measurement": "Inhibitory aureola diameter Cory. xerosis ATTC 373", "setting": "[2]", "value": "5/5"}, {"measurement": "bacteriostatic action against Corynebacterium xerosis", "setting": "[2]; summary in words of Table 1 (both strains)", "value": "pronounced bacteriostatic action"}]}
{"smiles": "O=C(O)C[C@H](NCCN[C@@H](CC(=O)O)C(=O)O)C(=O)O", "note": "[R,R-EDDS, ethylenediaminedisuccinic acid]", "values": [{"measurement": "Inhibitory aureola diameter Cory. xerosis ATTC 373", "setting": "[2]", "value": "15/15"}]}
